According to PMC11863801 (The Journal of Headache and Pain, 2025):

Molecular target: NaV1.9 (Rattus norvegicus, UniProt O88457)
Experiment: whole-cell patch clamp of NaV1.9-mediated current
Type: cell-based

Chain of NaV1.9 (O88457 whole entry): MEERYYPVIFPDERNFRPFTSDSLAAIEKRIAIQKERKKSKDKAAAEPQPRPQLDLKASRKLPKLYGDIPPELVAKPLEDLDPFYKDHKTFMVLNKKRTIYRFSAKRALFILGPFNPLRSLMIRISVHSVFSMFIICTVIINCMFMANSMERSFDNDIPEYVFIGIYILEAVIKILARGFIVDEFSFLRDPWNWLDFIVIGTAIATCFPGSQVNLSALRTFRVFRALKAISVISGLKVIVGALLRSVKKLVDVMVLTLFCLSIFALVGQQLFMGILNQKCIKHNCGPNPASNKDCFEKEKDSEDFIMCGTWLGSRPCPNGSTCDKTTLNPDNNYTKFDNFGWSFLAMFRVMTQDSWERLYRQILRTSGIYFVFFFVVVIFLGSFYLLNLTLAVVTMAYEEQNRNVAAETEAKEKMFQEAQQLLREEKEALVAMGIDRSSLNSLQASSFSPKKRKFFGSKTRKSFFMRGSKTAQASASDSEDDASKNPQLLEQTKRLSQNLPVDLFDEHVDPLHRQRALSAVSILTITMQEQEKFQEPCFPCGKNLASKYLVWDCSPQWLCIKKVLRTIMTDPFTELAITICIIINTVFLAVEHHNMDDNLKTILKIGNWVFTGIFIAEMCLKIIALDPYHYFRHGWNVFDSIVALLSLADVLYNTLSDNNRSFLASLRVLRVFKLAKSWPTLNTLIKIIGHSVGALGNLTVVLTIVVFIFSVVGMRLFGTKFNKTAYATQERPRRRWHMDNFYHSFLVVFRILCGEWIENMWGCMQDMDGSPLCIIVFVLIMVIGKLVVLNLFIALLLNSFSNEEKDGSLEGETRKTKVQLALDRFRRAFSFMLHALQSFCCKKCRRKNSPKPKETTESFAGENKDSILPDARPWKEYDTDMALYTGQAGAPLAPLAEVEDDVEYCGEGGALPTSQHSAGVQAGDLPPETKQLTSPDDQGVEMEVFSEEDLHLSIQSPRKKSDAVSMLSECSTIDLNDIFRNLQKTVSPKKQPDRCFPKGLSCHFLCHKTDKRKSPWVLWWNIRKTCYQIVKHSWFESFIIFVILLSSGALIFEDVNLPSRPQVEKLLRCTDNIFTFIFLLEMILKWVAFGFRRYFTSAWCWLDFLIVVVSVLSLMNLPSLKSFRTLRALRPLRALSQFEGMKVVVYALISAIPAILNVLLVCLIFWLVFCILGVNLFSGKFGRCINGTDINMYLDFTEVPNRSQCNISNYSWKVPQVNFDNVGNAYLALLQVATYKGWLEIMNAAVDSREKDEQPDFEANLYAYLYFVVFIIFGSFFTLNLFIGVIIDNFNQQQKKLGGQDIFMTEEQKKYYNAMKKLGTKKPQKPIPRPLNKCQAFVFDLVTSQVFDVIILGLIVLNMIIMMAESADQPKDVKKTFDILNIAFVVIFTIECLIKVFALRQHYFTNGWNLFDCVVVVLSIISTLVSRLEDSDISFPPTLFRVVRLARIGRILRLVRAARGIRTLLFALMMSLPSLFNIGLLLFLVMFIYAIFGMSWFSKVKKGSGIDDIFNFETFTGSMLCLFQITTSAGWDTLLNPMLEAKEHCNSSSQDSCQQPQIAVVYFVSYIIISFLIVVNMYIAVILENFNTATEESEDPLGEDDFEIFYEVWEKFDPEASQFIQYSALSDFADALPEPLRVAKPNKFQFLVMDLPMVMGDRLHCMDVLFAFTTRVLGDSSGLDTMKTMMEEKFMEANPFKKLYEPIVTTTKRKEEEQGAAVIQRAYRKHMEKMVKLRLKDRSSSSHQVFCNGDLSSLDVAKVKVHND

For `C[C@]12CC[C@H](O)CC1=CC[C@@H]1[C@@H]2CC[C@]2(C)C(=O)CC[C@@H]12` [DHEA, dehydroepiandrosterone], which IC50 is on record?
Its IC50 is 49.2 µM.
